From PMC5515844, “A new Prenylated Flavonoid induces G0/G1 arrest and apoptosis through p38/JNK MAPK pathways in Human Hepatocellular Carcinoma cells” (Scientific Reports, 2017)

Assays:
Hep3B cells [1] = test: Annexin V-FITC/PI apoptosis detection; assay type: cell-based, human; details: 0.5–2.0 μM, 48 h, dose-dependent
Method: (§1) An annexin-V FITC apoptosis detection Kit was used to determine the apoptosis effect induced by daphnegiravone D according to the manufacturer’s instructions (BD Biosciences, CA, USA). Briefly, Hep3B and HepG2 cells were plated in 6-well plates (2 × 10^5/well) and incubated overnight. Cells were harvested and washed with PBS by centrifugation after treatment with different concentrations of daphnegiravone D for 48 h. Then, cells were resuspended in 500 μL binding buffer and staining with Annexin V-FITC (10 μL) and propidium iodide (5 μL) at room temperature in the dark for 10 min. Thereafter, cells were analyzed by flow cytometry within 1 h after staining. 10,000 cells were acquired for each sample and data were analyzed by Cell Quest Pro software (BD Biosciences, New Jersey, USA).

HepG2 cells [2] = test: Annexin V-FITC/PI apoptosis detection; assay type: cell-based, human; details: HepG2, 2.5–10.0 μM, 48 h, dose-dependent
Method: as §1

[3] = Gross evaluation and pathological study in xenograft nude mice; assay type: in vivo, BALB/c nude mice
Method: All of the animal studies and procedures were conducted in accordance with the approval and guidelines of the Shenyang Pharmaceutical University Institutional Animal Care and Use Committee (permission number: SCXK (Jing) 2014-0004). Male BALB/c nude mice at the age of six weeks were obtained from Beijing HFK Bioscience Co., Ltd (Beijing, China). Hep3B cells (1 × 10^5 cells) were implanted subcutaneously into the right backsides of each nude mouse. After 12 days, when the tumor size reached about 100 mm^3, the mice were randomly divided into three groups (n = 6) and intraperitoneally injected with vehicle control or daphnegiravone D (5 and 10 mg/kg body weight) every two days for two weeks. The body weight and tumor sizes were measured every day, and the tumor volume was determined by caliper measurements and calculated by the formula: 0.5236 × L × W ^2, where L is the long axis and W is the short axis of the tumor. The experiment was terminated when the tumors volume of the control group reached about 3000 mm^3. The mice were sacrificed, and the tumors, hearts, livers, spleens, lungs and kidneys were excised immediately to evaluate the antitumor activity and toxicity of daphnegiravone D.
Mouse major organs (heart, liver, spleen, lung, kidney) and tumors were isolated and fixed in 10% buffered formalin for 3 days and embedded in paraffin. […]

Hep3B cells [4] = test: Clonogenic assay; assay type: cell-based, human; details: two weeks, dose-dependent
Method: (§2) The clonogenic assay was performed to appraise the effect of daphnegiravone D on cell proliferation. Hep3B (800 cells/well) or HepG2 (4,000 cells/well) cells were seeded in 6-well plates in 2 mL complete media overnight and attachment cells were incubated with various concentrations of daphnegiravone D for two weeks. Then, cells were washed twice with PBS carefully and fixed with 4.0% paraformaldehyde for 30 min, and stained with 0.5% crystal violet at room temperature for 30 min. Colonies containing exceeding 50 cells/colony were counted under microscope. All experiments were independently performed three times.

HepG2 cells [5] = test: Clonogenic assay; assay type: cell-based, human; details: HepG2, two weeks, dose-dependent
Method: as §2

HepG2 = test: MTT cytotoxicity assay; assay type: cell-based, human; details: Homo sapiens, HepG2; MTT, 48 h, mean ± SD
Method: (§3) HepG2 and Hep3B (human hepatoma cells), Bcap37 and MCF-7 (human breast cancer cells), TE-1 (human esophageal cancer cells), A549 (human lung carcinoma cells), U251 and U87 (human glioma cells), were cultured in Dulbecco’s modified Eagle’s medium (DMEM) supplemented with 10% fetal bovine serum (FBS) and 1% penicillin/streptomycin (10000 U/mL penicillin, 10000 μg/ml streptomycin). SH-SY5Y (human neuroblastoma cells), LO2 (human normal liver cell) were grown in RPMI 1640 containing 10% FBS and 100 µg/ml penicillin, 100 µg/ml streptomycin. HepG2, Hep3B, MCF-7, TE-1, A549, U87, U251 and SHSY5Y cells were obtained from the American Type Culture Collection (Manassas, VA, USA). Bcap37 and LO2 cells were purchased from the Cell Bank of Chinese Academy of Sciences (Shanghai, China). All cells were incubated in a humidified atmosphere containing 5% CO2 at 37 °C.
(§4) Cells seeded in 96-well plates with 5 × 10^3 cells/well were adhered overnight and incubated with vehicle control (DMSO) or diverse concentrations of compounds for 48 h. After treatment, 20 μL of MTT (5 mg/mL) was added to each well and incubated for another 4 h at 37 °C. Then, 150 μL of DMSO/well was appended after removed the supernatant to dissolve the formed purple formazan crystals and the color absorbance was measured at 490 nm using a microplate reader (Molecular Devices, Thermo, CA, USA). The inhibition rate (%) was calculated as (A490(control) − A490(drug groups))/(A490(control) − A490(blank)) × 100 and the value of IC50 (the concentration that caused 50% inhibition of cell viability) was determined using SPSS 20.0. This experiment was measured in triplicate, independently.

Hep3B = test: MTT cytotoxicity assay; assay type: cell-based, human; details: Homo sapiens, 48 h, mean ± SD
Method: as §3, §4

Hep3B cells [6] = test: Cell cycle analysis, PI staining, flow cytometry; assay type: cell-based, human; details: different concentrations, 24 and 48 h
Method: (§5) Flow cytometry was used to determine the cell cycle effects of daphnegiravone D on Hep3B and HepG2 cells. Cells were seeded (2 × 10^5 cells/well) into six-well plates with complete DMEM medium for 24 h and treated with various concentrations of daphnegiravone D for 24 and 48 h. Cells were harvested after treatment, washed with cold PBS, and fixed with 70% ethanol at 4 °C overnight. Then, resuspended cell pellets in staining buffer, blended in RNase A and PI staining for 30 min at 37 °C. Cell cycle phase was investigated using a FACSCalibur flow cytometer (BD Biosciences, New Jersey, USA). The results were analyzed with FlowJo software (v7.6.5, Tree Star, Inc.).

HepG2 cells [7] = test: Cell cycle analysis, PI staining, flow cytometry; assay type: cell-based, human; details: HepG2, different concentrations, 24 and 48 h
Method: as §5

With `COc1c(-c2ccc(O)c(CC=C(C)C)c2)oc2c(CC=C(C)C)c(O)cc(O)c2c1=O` [Compound 1, daphnegiravone D] the “AV+PI− and AV+PI+ cells (apoptosis)” value (Hep3B cells [1]) was “increased dramatically”, the “AV+PI− and AV+PI+ cells (apoptosis)” value (HepG2 cells [2]) was “increased dramatically” and the “histopathology of heart, liver, spleen, lungs and kidneys” value ([3]; 5 mg/kg and 10 mg/kg, H&E, vs vehicle control group) was “no obvious differences”. For the same molecule, the “body weight of the mice” value ([3]; 5 and 10 mg/kg i.p. every two days for two weeks) was “did not affect the body weight”, the colonies (Hep3B cells [4]) was “dramatically reduced” and the colonies (HepG2 cells [5]) was “dramatically reduced”. The IC50 (HepG2) was 9.89 ± 1.02 µM, the IC50 (Hep3B) was 1.63 ± 0.56 µM and the cell cycle arrest (Hep3B cells [6]) was “significantly arrested at G0/G1 phase”. For the same molecule, the cell cycle arrest (HepG2 cells [7]) was “significantly arrested at G0/G1 phase”.
